In brackets after ≈: the same amount, converted by molar mass.
Legend:
Type in all cases: physicochemical
[1] = LogPow by HPLC method (OECD 117); settings: reversed-phase HPLC column (Inertsil ODS-4)
Description: Inc. Inertsil ODS-4 reversed-phase column, 5 µm, 4.6 mm x 150 mm) eluted with a mobile phase consisting of H2O and CH3CN (45: 55) at a flow rate of 1.0 mL/min, with UV monitoring at 300 (for 1) or 330 (for 2) nm, at 37 ° C. The dead time t0 was measured with thiourea as the unretained compound. Each measurement was performed in duplicate, and the mean retention time (tR) was used for further calculations. The capacity factor of each compound, k = ((tR – t0) / t0), was calculated by extrapolation of the line fitted on the measured log k values of CH3CN−aqueous mobile phase. For the reference substrates (acetanilide, methyl benzoate, toluene, 4-phenylphenol, benzyl benzoate, dibenzyl), the calculated log k values were plotted against logPow values, and the absolute calibration curve was determined (LogP = 2.8279 x (log k) + 1.6035, R2=0.98). The LogP values of tested compounds were calculated using a previously prepared calibration curve from the tR […]
We observed the azobenzene compound using an optical microscope (BX-51P, Olympus). Bright-field images were captured in the reflection mode. For investigation of the existence of the polarization plane in the sample, the transmitted polarizing microscope mode under crossed-Nicol conditions was used. […] The intensity of illuminating UV light at the sample was monitored with an optical power meter […]

[2] = Aqueous solubility of stilbenes 1 and 2 in phosphate buffer; settings: for solubility at 24 h: 20 °C, aqueous buffer, thermodynamic from solid, 20 °C for 24 h
Excerpt: First, we synthesized cis- and trans-stilbene analogs 1 and 2 as models for cis- and trans-azobenzenes, respectively (Fig. 1, Fig. S1). As expected, cis-1 was 14 times more soluble than trans-2 in phosphate buffer (Table S1). To confirm the putative mechanism of the higher solubility of the cis isomer, the melting point and LogP ow were examined as parameters of intermolecular interaction and hydrophobicity, respectively. The order of lower melting points (cis < trans) was the same as the order of higher aqueous solubility (cis > trans). As for hydrophobicity, the LogP ow values of 1 and 2 were almost the same. […] Therefore, the bent and twisted structure of cis-azobenzenes may result in greater aqueous solubility.
Table S1. Physicochemical properties of stilbenes 1 and 2.
Compound (µg/mL) Melting point (º C) LogPow λmax (nm)
Table S2. Photoinduced isomerization of 3
Light Time (min) cis ratio (%) trans ratio (%)
Compound 3 (10 µM) in a mixture of water and MeOH (1%) was successively exposed to white light and to a 365 nm mercury lamp (0.5 mW/cm2). The cis-trans ratio was calculated from the peak areas in HPLC.
(§1) Table S3. Cis ratio and aqueous solubilization of 3 under UV irradiation, under visible light irradiation, and in […]
Shake UV light Visible light Dark time cis ratio Solubilized 3 cis ratio Solubilized 3 cis ratio Solubility (%) (µg/mL) (%) (µg/mL) (%) (µg/mL)
(§2) Compound 3 was shaken at 37 °C under UV irradiation, under visible light irradiation, and in the dark. UV irradiation was performed with a mercury lamp (0.5 mW/cm2). Cis ratio in the aqueous solution was evaluated from the peak areas in HPLC immediately after filtration.

[3] = Aqueous solubilization in 1/15 M phosphate buffer (pH 7.4) under UV, visible light or dark, with cis ratio in solution by HPLC
Description: as §1, §2
Table S4. Aqueous solubilization and cis ratio of 3 under irradiation at various wavelengths through filters of […]
Illumination was performed with a xenon lamp using repeated cycles of irradiation and shaking (5000 flashes, then shaking for 10 sec) through filters of various bandwidths at room temperature (20-22 °C) for 1 h. The cis ratio in the aqueous solution was evaluated by HPLC immediately after filtration, based on peak area.
Table S5. Aqueous solubilization of 3 under UV irradiation at various intensity levels.
Sample irradiation was conducted using 365 nm LED light (max light intensity: 290 mW/cm2) at 37 °C for 1 […]
Sample irradiations were conducted with the white light through a filter cutting off wavelengths below 560 nm, or with 365 nm LED light (344 mW/cm2) at 37 °C for 1 h.
Table S7. Aqueous dissolution of UV-irradiated crystals of 3 measured in the dark, and the cis ratio contained […]
Crystals of 3 were irradiated with 365 nm LED light (344 mW/cm2) at 37 °C for 3 h.
The UV-irradiated crystals and unirradiated crystals were each shaken in phosphate buffer in the dark at 37 °C for 1 h.
Physicochemical properties […]
Compound 3 (about 0.2 mg) was ground and taken up in 1/15 M phosphate buffer (pH 7.4, 1.0 mL) in a 10 mL glass tube. The suspension was incubated under ultrasound irradiation for 10 min, and shaken in a temperature controllable incubator located in a dark room for the indicated time at the indicated temperature.
With shaking on a plate shaker, a sample was irradiated with a 365 nm mercury lamp (4 W, UVP compact […]
white LED light (5 W, Nikki Trading Corp., NLSS05BM, 68 and 54 mW/cm2 at 450 and 540 nm, respectively) through a filter cutting off wavelengths below 560 nm (Atto Corp. YA-3). Irradiation was done from the top of the sample glass tube. Then, the suspension was filtered through a Millipore Millex-LG (0.20 […]
For irradiation at various UV wavelengths, 3 (about 0.1 mg) was ground and taken up in 1/15 M phosphate buffer (pH 7.4, 0.2 mL) in a well of a 96-well white plate. Illumination over a range of wavelength from 355-540 nm was performed using a plate reader EnVision equipped with a xenon flash lamp (35 W, 500 Hz), with excitation filters of appropriate bandwidths.

SMILES	chromatographic logP [1]	solubility at 24 h [2] [µg/mL]	times more soluble than trans-2 ([2]; cis-1 vs trans-2) [times]	aqueous solubilization under UV irradiation vs in the dark ([3]; UV 0.5 mW/cm2, 37 °C, 5 h)	increase of solubilization by UV irradiation ([3]; more intense UV irradiation (344 mW/cm2)) [fold]
COc1ccc(/C=C/c2ccc(OC)c(OC)c2)cc1OC [trans-2]	3.2	0.0475 (≈ 0.158 µM)			
COc1ccc(/C=C\c2ccc(OC)c(OC)c2)cc1OC [cis-1]	3.3	0.673 (≈ 2.24 µM)	14		
O=C(O)c1cc(/N=N/c2ccc(S(=O)(=O)Nc3ccccn3)cc2)ccc1O [Compound 4, Sulfasalazine, reference compound]				essentially the same	1.4
